The GI50 is the concentration at which growth is held to half of that of the control. One may read the IC50 as the midpoint of a concentration-inhibition curve.

In brackets after ≈: the same amount, converted by molar mass. Entries after “also recorded” stand apart in the source; their conditions may differ.

Consider nine compounds from publication PMC11243672, “New 3-(Dibenzyloxyphosphoryl)isoxazolidine Conjugates of N1-Benzylated Quinazoline-2,4-diones as Potential Cytotoxic Agents against Cancer Cell Lines” (Molecules, 2024).

The test system of one data set is HepG2. Also on record: method as in PMID 32510731. The note with it: antiproliferative activity; cited from earlier work.
Data set [1] concerns HCT-116. Also on record: method as in PMID 32510731. Particulars: antiproliferative activity; cited from earlier work.
The test system of the next data set is MCF-7. Also on record: method as in PMID 32510731. The note with it: antiproliferative activity; cited from earlier work.
The next data set has as its system Jurkat cell line. Also on record: method as in PMID 20813537. The note with it: antitumor effect; cited from earlier work.
In data set [2] the test system is colorectal adenoma cancer cell line (HT-29). Also on record: method as in doi:10.1016/j.tet.2006.12.076. Particulars: cancer cell line growth inhibition; cited from earlier work.
The test system of data set [3] is HCT-116. More on the design: method as in PMID 37903949. Particulars: cytotoxic activity; cited from earlier work.
The subject of data set [4] is PARP2 (poly(ADP-ribose)polymerase 2). More on the design: method as in PMID 37843892. The note with it: cited from earlier work.
Data set [5] concerns PARP1 (poly(ADP-ribose)polymerase 1). More on the design: method as in PMID 37843892. The note with it: cited from earlier work.
The test system of data set [6] is murine leukemia cell line (L1210). The note with it: cytotoxicity; cited from earlier work.
Data set [7] relates to epidermoid carcinoma cell line (KB). The note with it: cytotoxicity; cited from earlier work.
Data set [8] deals with human skin fibroblast (HSF). Kind of data set: Safety study in vitro (MTS viability), HSF. Format: cell-based. Particulars: 0.205–50 μM, 72 h. How it is done:
(§1) In drug development, particular attention should be paid to studying the safety profile of compounds. Promising drug candidates should not cause adverse effects on essential organ systems like the liver, kidney, or healthy cells in general. Systemic toxicity of the compound is the main factor limiting its therapeutic application and efficiency. In our study, a preliminary study on nephrotoxicity and hepatotoxicity was evaluated in human embryonic kidney cells (HEK293, ATCC® CRL1573™) and human hepatoma cells (HepG2, ATCC® HB8065™), respectively. HEK293 is commonly used to evaluate the cytotoxicity of nephrotoxic compounds [42]. HepG2 is a well-established in vitro human cell system to study liver toxicity. We also used healthy human skin fibroblast (HSF) to extend the cytotoxicity profile. All three cell lines were cultured in DMEM (Gibco no. 61965-026, UK) supplemented with 10% FBS (Gibco no. 10500-064, UK). For the experiment, cells were seeded (8 × 10^3 cells/100μL/well) in transparent 96-well plates (FALCON no. 353072, Corning, Durham, […], USA) and cultured overnight. […] DOX was a reference compound that adversely affected the liver, kidney, and healthy cells. Treatment with compounds was carried out for 72 h. Cell viability was examined using an MTS-based CellTiter96® AQueous One Solution Cell Proliferation Assay (Promega, Madison, WI, USA) following the manufacturer’s protocol.

Another data set concerns PC-3 cell line. Nature of the data set: IncuCyte caspase-3/7 apoptosis induction assay. It counts as cell-based, human. The note with it: PC-3 cells, tested at 1 µM and 10 µM, monitored for 28 h; staurosporine 1 µM positive control. On the procedure:
Apoptosis induction tests were conducted using the IncuCyte system to test cells (PC-3) in an in vitro culture. […] The compounds were tested at 1 µM and 10 µM concentrations, and apoptosis was monitored for 28 h (Figure 6). The incubation time was selected based on the induction of apoptosis in the control cells. Staurosporine (STA) at a concentration of 1 µM was used as the positive control, while the negative control cells were treated with 0.1% DMSO (vehicle control). […].
Apoptosis was monitored in real time using the Incucyte® Caspase-3/7 for […] Dyes (Cat. No. 4776, Sartorius, Ann Arbor, MI, USA). The principle of this test is based on binding a DNA intercalating dye with the activation motif (DEVD) of caspase-3/7, allowing a quantitative analysis of cells to undergo caspase-3/7-mediated apoptosis in real time. For the experiment, PC3 cells were seeded in a black 96-well plate with transparent bottom (cat. no. 165305, ThermoScientific, Waltham, MA, USA) at 10,000 cells/well density and cultured overnight. The next day, the medium was removed, and the cells were treated with the tested compound. […] The IncuCyte S3 imaging system recorded kinetic measures of the number of caspase-3/7 positive cells. Repeat scanning to record phase and fluorescence images were every 2 h, for up to 28 h. […]

For data set [9], the system named is prostate cancer cells (PC-3). Kind of data set: MTS-based cytotoxicity assay, PC-3. Format: cell-based, human. Particulars: Homo sapiens, 72 h, 72 h treatment, 0.205–50 μM, mean ± SEM. On the procedure: (§2) In this study, we applied the most extensively used MTS-based assay, which provides a valuable tool for determining cell viability by evaluating metabolic activity. The cytostatic activity of the tested compounds was defined as the half-maximal inhibitory concentration (IC50) causing a 50% decrease in the metabolic activity of the cells. It was determined against breast cancer (MCF-7), fibrosarcoma (HT-1080), and prostate cancer (PC-3) cells.
(§3) The tested compounds were tested against three different human cancer cell lines (breast adenocarcinoma MCF-7 ATCC® HTB-22^TM, fibrosarcoma HT-1080 ATCC® CCL121^TM, and prostate adenocarcinoma PC-3 ATCC® CRL-1435^TM). For the cell viability experiment, cells were seeded in transparent 96-well plates (FALCON no. 353072, Corning, Durham, NC, USA) in MEM (Gibco no. 31095-029, UK) supplemented with 10% heat-inactivated FBS (Gibco no. 10500-064, UK). The cell seeding density was as follows: MCF-7 12,000 cells/well, HT-1080 7000 cells/well, PC-3 10,000 cells/well. Cells were seeded one day before treatment with the tested compounds and cultured overnight. The confluence on the treatment day was around 30%. The tested compounds were dissolved in DMSO as 10 mM stock solutions and kept under −4 °C. On the day of experimentation, the medium was removed and replaced with a fresh one that contained the following: (1) dimethylsulfoxide (DMSO < 0.1%, vehicle control (Veh)); (2) increasing the concentration of compounds (0.205–50 μM, performed as a 2.5-fold serial dilution for dose–response analysis). Treatment with compounds was carried out for 72 h. Each treatment was replicated three times in a single experiment, with three separate experiments conducted. (n = 9). When significant variability in the results occurred, an additional test was performed on certain compounds. During the incubation, the cells were examined under an inverted microscope to check if the compounds had not precipitated in the culture medium. The inhibitory effect of compounds on the cell was examined using an MTS-based assay (Promega, Madison, WI, USA) following the manufacturer’s protocol. The absorbance was measured at 490 nm using Tecan Spark’s multimode plate reader (Tecan, Männedorf, Switzerland). A reference wavelength of 630 nm was used to subtract the background. IC50 values were calculated by fitting a non-linear regression to a sigmoidal dose–response curve in GraphPad Prism version 8.0.1.

In data set [10] the test system is breast cancer cells (MCF-7). Kind of data set: MTS-based cytotoxicity assay, MCF-7. Particulars: Homo sapiens, MCF7, 72 h, 72 h treatment, 0.205–50 μM, mean ± SEM. It counts as cell-based, human. How it is done: as §2, §3
For orientation: Tetrazolium assays rely on reduction of a dye to a coloured formazan, in cell work by metabolically active cells.

For data set [11], the system named is human hepatoma cells (HepG2). Kind of data set: Safety study in vitro (MTS viability), HepG2. It counts as cell-based. The note with it: 0.205–50 μM, 72 h. How it is done: as §1
Data set [12] deals with human embryonic kidney cells (HEK293). Kind of data set: Safety study in vitro (MTS viability), HEK293. It counts as cell-based. The note with it: 0.205–50 μM, 72 h. On the procedure: as §1
The subject of data set [13] is fibrosarcoma cells (HT-1080). Nature of the data set: MTS-based cytotoxicity assay, HT-1080. It counts as cell-based, human. Particulars: Homo sapiens, HT-1080, 72 h, 72 h treatment, 0.205–50 μM, mean ± SEM. On the procedure: as §2, §3
Data set [14] deals with human lymphocyte cell line (CEM). More on the design: method as in PMID 30060562. Particulars: anticancer activity; cited from earlier work.
In data set [15] the test system is breast cancer cell line (MCF-7). More on the design: method as in doi:10.1016/j.tet.2006.12.076. The note with it: cancer cell line growth inhibition; cited from earlier work.

`O=C(Cn1c(=O)c2ccccc2n(Cc2ccccc2)c1=O)Nc1ccc(C(=O)N/N=C/c2ccc(Cl)cc2)cc1` [Compound 14]: the 50% growth inhibitory concentration (GI50) was 9.16 ± 0.8 µM in the data set on HepG2, 5.69 ± 0.4 µM in the data set on HCT-116 [1] and 5.27 ± 0.2 µM in the data set on MCF-7.
For the compound `Cc1cn(C2CC(c3ccccc3Cl)N(C)O2)c(=O)[nH]c1=O` (stereo not drawn) [Compound 5], in the data set on Jurkat cell line, the IC50 was 8.8 ± 4.4 µM.
`CO[C@@]12[C@H](COC(N)=O)C3=C(C(=O)C(C)=C(N)C3=O)N1C[C@@H]1N[C@@H]12` [Mitomycin C]: in data set [2], the “GI, HT-29” value is 31%.
Regarding `O=C(O)c1ccc(NC(=S)NC(=O)c2ccc(-n3c(=O)[nH]c4ccccc4c3=O)cc2)cc1` [Compound 13], in the data set with HCT-116 [3], the concentration for half-maximal inhibition (IC50) is 1.18 ± 0.06 µM.
With `O=C(c1cc(Cn2c(=O)[nH]c(=O)c3ccccc32)ccc1F)N1CCN(C2CCCC2)C(=O)C1` [Compound 15], in data set [4], the PARP2 inhibition result was “inhibited”. Besides, in data set [5], the PARP1 inhibition entry is on record as “inhibited”.
Consider `C(=C/CCCCN1OC(CCCCCCCCc2cccnc2)C2CCCC21)/CCCCCCCCCc1cccnc1` (stereo not drawn) [pyrinodemin A], for which the “IC50, L1210” value in data set [6] is 0.058 µg/mL (≈ 0.0987 µM). The “IC50, KB” value in [7] is reported as 0.5 µg/mL (≈ 0.85 µM).
Turning to `O=c1c2ccccc2n(C[C@@H]2C[C@@H](P(=O)(OCc3ccccc3)OCc3ccccc3)N(Cc3ccccc3)O2)c(=O)n1Cc1ccccc1F` (relative stereo) [trans-16b, Dibenzyl cis- and trans-5-((3-(2-fluorobenzyl)-3,4-dihydro-2,4-dioxoquinazolin-1(2H)-yl)methyl)-2-benzylisoxazolidin-3-yl-3-phosphonate], in data set [8], the “Cell viability, HSF” value is “no adverse effect was observed”. Besides, the “Induction of apoptosis (caspase-3/7 positive cells)” value in the data set on PC-3 cell line was “comparable to that induced with staurosporine; also recorded: highest induction of apoptosis; also recorded: strongly induced apoptosis”. The IC50 in data set [9] came to 9.84 ± 3.69 µM; in data set [10], 78.7 ± 2.35 µM; in [13], 34.6 ± 5.3 µM. In [11], the “Cell viability, HepG2” value is listed as “did not affect cell viability”. Further, in data set [12], the “Cell viability, HEK293” value is reported as “did not affect cell viability”.
For the compound `O=c1[nH]cc(F)c(=O)[nH]1` [5-Fluorouracil], the IC50 in [14] is 18 ± 5 µM. The “GI, HT-29” value in [2] is 34%. Moreover, the “GI, MCF-7” value in data set [15] was 31%.
Turning to `COc1cc2nccc(Oc3ccc(NC(=O)C4(C(=O)Nc5ccc(F)cc5)CC4)cc3)c2cc1OC` [cabozantinib, reference compound], the IC50 in the data set on HCT-116 [3] is 16.4 ± 0.86 µM.
